The record followed here is patent US12728168B2, “Anti-CEA antibody-exatecan analog conjugate and pharmaceutical use thereof” (JIANGSU HENGRUI MEDICINE CO., LTD., priority 2019, dated 2026).

The IC50 is the midpoint of a concentration-inhibition curve.

The subject of assay [1] is SK-BR-3 tumor cells (human breast cancer cells). Put plainly: Inhibition of in vitro proliferation of SK-BR-3 cells (CTG). The conditions noted are these: 6 days of culture. In kind it is cell-based. The protocol: (§1) This experiment was intended to test the inhibitory activity of the pharmaceutical compounds of the present disclosure against the in vitro proliferation of U87MG cells (Cell Bank, Chinese Academy of Sciences, Cat #TCHu138) and SK-BR-3 tumor cells (human breast cancer cells, ATCC, Cat #HTB-30). The cells were treated in vitro with a compound at different concentrations. After 6 days of culture, the proliferation of cells was tested using CTG (CellTiter-Glo® Luminescent Cell Viability Assay, Promega, Cat #G7573) reagents, and the in vitro activity of the compound was evaluated according to IC50 value.
(§2) The test for the inhibition of the in vitro proliferation of U87MG cells was taken as an example to illustrate the method of the present invention for testing the inhibitory activity of the compounds of the present invention against the in vitro proliferation of tumor cells. […]
(§3) Different test samples at 100 nM or 5 μM (100 μL) were added to the first column of a 96-well plate, and 100 μL of PBS was added to each well of the second column through the eleventh column. […] Plate reading: the 96-well cell culture plate was taken out and tested in a microplate reader (BMG labtech, PHERAstar FS) for chemiluminescence. […]
(§4) Data were processed and analyzed using Microsoft Excel and Graphpad Prism 5.

The next assay relates to U87MG cells. Put plainly: Inhibition of in vitro proliferation of U87MG cells (CTG). The class given is cell-based. The following applies: Homo sapiens, U-87 MG, 6 days of culture, read-out: IC50 (nM) U87. The protocol:
as §1, §2, §3, §4

Assay [2] addresses T1, human CEACAM1 expressed on CHO cell surface (CEACAM1-CHO) (Homo sapiens, UniProt P13688).
T1 construct: expressed in transfected cells; host or cells: CHO cells
T1 sequence (P13688 35-526): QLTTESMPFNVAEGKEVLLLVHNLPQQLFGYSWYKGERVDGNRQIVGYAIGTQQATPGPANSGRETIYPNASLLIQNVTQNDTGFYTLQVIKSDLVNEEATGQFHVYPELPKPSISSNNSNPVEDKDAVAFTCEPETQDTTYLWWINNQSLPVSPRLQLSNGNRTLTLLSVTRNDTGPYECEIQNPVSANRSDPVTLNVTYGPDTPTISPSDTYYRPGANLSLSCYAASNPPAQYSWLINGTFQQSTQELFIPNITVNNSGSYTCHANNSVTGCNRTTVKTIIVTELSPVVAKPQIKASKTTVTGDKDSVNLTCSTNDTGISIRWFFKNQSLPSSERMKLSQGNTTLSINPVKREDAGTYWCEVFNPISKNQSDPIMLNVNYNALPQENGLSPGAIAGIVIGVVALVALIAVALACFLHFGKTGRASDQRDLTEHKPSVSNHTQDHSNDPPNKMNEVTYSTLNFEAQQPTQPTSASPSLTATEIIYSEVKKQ
Put plainly: FACS binding assay, CEACAM1-CHO cells. Here is the method: In order to detect the binding of the antibody to the CEA protein on the cell surface, the binding activity of the antibody was determined by FACS using cells expressing CEA on the cell surface. Cells were harvested and centrifuged at 400 g at 4° C. for 5 min. Pre-cooled PBS containing FBS at final concentration 10% was added, and the mixture was centrifuged at 400 g at 4° C. for 5 min; the procedures were repeated twice. The cells were seeded into a 96-well plate at 10^5 cells/well, and 100 μL of gradient diluted antibody solution was added to each well. The plate was incubated at 4° C. for 60 min and centrifuged, and the supernatant was removed. 250 μL of pre-cooled PBS containing FBS at final concentration 10% was added to each well to resuspend the cells, and the suspension was centrifuged at 400 g at 4° C. for 5 min, followed by the removal of the supernatant; the procedures were repeated twice. 50 μL of 1:200 diluted secondary antibody Alexa Fluor@488 goat anti-human IgG (H+L) (Lifetechologies, Cat #A11013) was added. The plate was incubated in the dark at 4° C. for 45 min and centrifuged, and the supernatant was removed. 250 μL of pre-cooled PBS containing FBS at final concentration 10% was added to each cell to resuspend the cells, and the suspension was centrifuged at 400 g at 4° C. for 5 min; the procedures were repeated twice. 100 μL of pre-cooled PBS was added to each well to resuspend the cells. The plate was analyzed by a flow cytometer (BD, FACSverse) for fluorescence signal values. Higher values indicate higher binding activity of the antibody to the protein on the cell surface. Binding curves were plotted using PRISM analysis software based on the assay results, and the EC50 values for the binding activity of the antibody to the cell surface proteins human CEA (MKN45 human gastric cancer cells, Nanjing Kebai Biotechnology Co., Ltd., Cat #CBP60488), cynoCEA-CHO and CEACAM1-CHO were obtained by fitting.
(Flow cytometry measures light scatter and fluorescence of single cells or particles in a stream.)

As to `CC[C@@]1(O)C(=O)OCc2c1cc1n(c2=O)Cc2c-1nc1cc(F)c(C)c3c1c2[C@@H](NC(=O)[C@@H](O)C1CC1)CC3` [1-A, (S)-2-cyclopropyl-N-((1S,9S)-9-ethyl-5-fluoro-9-hydroxy-4-methyl-10,13-dioxo-2,3,9,10,13,15-hexahydro-1H,12H-benzo[de]pyrano[3′,4′:6,7]indolizino[1,2-b]quinolin-1-yl)-2-hydroxyacetamide], the half-inhibitory concentration (IC50) in assay [1] came to 8.11 nM; in the assay on U87MG cells, 2.31 nM.

Regarding `CC[C@@]1(O)C(=O)OCc2c1cc1n(c2=O)Cc2c-1nc1cc(F)c(C)c3c1c2[C@@H](NC(=O)[C@H](O)C1CC1)CC3` [1-B, (R)-2-cyclopropyl-N-((1S,9S)-9-ethyl-5-fluoro-9-hydroxy-4-methyl-10,13-dioxo-2,3,9,10,13,15-hexahydro-1H,12H-benzo[de]pyrano[3′,4′:6,7]indolizino[1,2-b]quinolin-1-yl)-2-hydroxyacetamide], the 50% inhibitory concentration (IC50) in assay [1] was 0.33 nM; in the assay on U87MG cells, 0.86 nM.

“Sanofi: the antibody in SAR-408701 (Sanofi), heavy chain SEQ ID NO: 88, light chain SEQ ID NO: 89; positive control [reference compound]”: the “EC50 (nM) CEACAM1-CHO” value in assay [2] (Table 17, humanized antibodies and controls) is recorded as “No binding”.

B1: mAb103: murine anti-CEA monoclonal antibody, VH SEQ ID NO: 13, VL SEQ ID NO: 14 (antibody, V domains shown)
VH: QIQLVQSGPELKKPGETVKISCKASGYTFTTYGVIWVKQAPGKGLKWMGWINTYSGVPTYADDFKGRFAFSLETSASTAFLQINNLKNEDTATYFCARKKTLTTVTPWFAYWGQGTLVTVSA
VL: DLVVTQSSSASFSLGASAKLTCTLSSQHSTYTIEWYQQQPLKPPKYVMELKKDGSHSTGDGIPDRFSGSSSGADRYLTISNIQPEDEAIYICGVGNTIKEQFVYVFGGGTKVTVL
For the molecule B1, in assay [2] (Table 1, murine antibodies), the “EC50 (nM) CEACAM1-CHO” value is given as “No binding”.

B2: mAb63: murine anti-CEA monoclonal antibody, VH SEQ ID NO: 9, VL SEQ ID NO: 10 (antibody, V domains shown)
VH: EVQLQQSGPELVKPGASVKMSCKASGYTFTDFYMNWVRQSHGKSLEWIGDIFPKNGNTDYNRKFKDKATLTVDKSSNTVYMEFRSLTLEDSAIYFCARSGYGNYVFDYWGQGTIFTVSS
VL: DVQMTQTPSALSASLGDRVTISCRTSQDINIYLNWYQQKPDGTVKLLIYYRSGLLSGVPSRFSGSGSGTDYSLTISNLEPEDIATYFCQQGNTLPPTFGGGTKLEIK
Take B2: the “EC50 (nM) CEACAM1-CHO” value in assay [2] (Table 1, murine antibodies) is “No binding”.

B3: mAb67: murine anti-CEA monoclonal antibody, VH SEQ ID NO: 11, VL SEQ ID NO: 12 (antibody, V domains shown)
VH: EVQLQQSGPELVKPGASVKIYCKASGYTFTDYHMNWVKQSHGKSLEWIGDINPDIGGTSYNQNFKGKATLTVDKSSSTAYMELRSLTSEDSAVYYCSRWDFDSFANWGQGTLVTVSA
VL: DIVMTQSPASLAMSLGKRATISCRASESVSIIGTNLIHWYQQKPGQPPKLLIYHASNLETGVPARFSGSGSGADFTLTIDPVEGDDVALYYCLQSRKIPYTFGGGTKMEIK
As for B3, the “EC50 (nM) CEACAM1-CHO” value in assay [2] (Table 1, murine antibodies) is given as “No binding”.
